According to US8153787B2 (priority 2005, dated 2012):
Values after ≈ are worked out from the molar mass of the structure shown. Read-outs that look alike come from different tables or passages of the source.

Experiments:
[1] = test system: Human Cytomegalovirus (HCMV); assay: microbe, parasite or virus in culture; type: cell-based
[2] = test system: herpes simplex virus type 1 (HSV-1); assay: microbe, parasite or virus in culture; type: cell-based; details: Human alphaherpesvirus 1, HEL, read-out: EC50 HSV-1 (Kos strain)
murine polyomavirus = assay: microbe, parasite or virus in culture; type: cell-based; details: Alphapolyomavirus muris, UC1, UC1B
pox tail lesions = assay: Pox tail lesion model; type: in vivo
[3] = test system: Herpes simplex virus-1 (KOS and TK- KOS ACVr); type: cell-based
[4] = test system: Vaccinia virus (Lederle, Lister, W R and Copenhagen); type: cell-based
Orf virus (NZ2) = type: cell-based
[5] = Decomposition in aqueous solution (sym-triazine ring opening); type: physicochemical; details: in words
Source text: The first step is a reversible opening of the sym-triazine ring to the N-formylguanidine derivative which can close back to the cyclic structure. This step occurs in presence of a trialkylammonium buffer, e.g. triethylammonium hydrogenocarbonate (TEAB), triethylammonium hydroxide or triethylammonium acetate. This hydrolytic reaction is slow and reaches equilibrium within several days. It is accompanied by loss of UV-absorption which allows to determine its course.
Though this reaction is generally controlled by acidobasic catalysis, it could be eventually speeded up (or slowed down) in vivo by the action of enzymes.
The reaction course was monitored by measurement of absorption maximum decrease in UV spectrum at λmax 245 nm. For each measurement 10 μl sample of reaction mixture was diluted with water to overall volume 3 ml and absorbance value at 245 nm determined. Equilibrium was reached when no more decrease of absorbance occurred. The reaction mixture was evaporated to dryness, coevaporated with water (5×3 ml) and then with methanol (2×3 ml). The residue in water (3 ml) was applied onto a column of Dowex 50 (Na^+ form, 20 ml) and the column eluted with water. UV absorbing eluate was evaporated and lyophilized to give 105 mg (92%) of a sodium salt of 3a as a colourless amorphous material.

HEL cells = details: human
in vitro = details: African green monkey

Question: With `Nc1ncn(C[C@@H](CO)OCP(=O)(O)O)c(=O)n1` [Compound 3, (S)-1-[3-hydroxy-2-(Phosphonomethoxy)propyl]-5-azacytosine] as the compound, how does the “activity against CMV (AD-169 and Davis) in HEL cells” value [1] read?
Answer: significant activity

Question: And the EC50 ([1]; Human betaherpesvirus 5, AD169, HEL, read-out: EC50 HCMV AD-169 strain (HEL cells))?
Answer: 0.078 µg/mL (≈ 0.278 µM)

Question: And the EC50 ([1]; Human betaherpesvirus 5, HEL, read-out: EC50 HCMV Davis strain (HEL cells))?
Answer: 0.054 µg/mL (≈ 0.193 µM)

Question: What about the EC50 [2] of the same compound?
Answer: 0.61 µg/mL (≈ 2.18 µM)

Question: And the EC50 (murine polyomavirus; read-out: antiviral activity (EC50) 2PTA2)?
Answer: 3.35 µg/mL (≈ 12 µM)

Question: What about the EC50 (murine polyomavirus; read-out: antiviral activity (EC50) LID-1) of the same compound?
Answer: 4.98 µg/mL (≈ 17.8 µM)

Question: What about the EC50 (murine polyomavirus; read-out: antiviral activity (EC50) MN/RDE Toronto) of the same compound?
Answer: 1.94 µg/mL (≈ 6.92 µM)

Question: And the EC50 (murine polyomavirus; read-out: antiviral activity (EC50) PTA)?
Answer: 3.89 µg/mL (≈ 13.9 µM)

Question: And the “number of lesions on day 7” value (pox tail lesions)?
Answer: 0

Question: What about the “activity against Herpes simplex virus-1 (KOS and TK- KOS ACVr) in E6SM cell cultures” value [3] of the same compound?
Answer: significant activity

Question: What about the “activity against Vaccinia virus (Lederle, Lister, W R and Copenhagen) in PHKs” value [4] of the same compound?
Answer: significant activity

Question: What about the “activity against Orf virus (NZ2) in PHKs” value (Orf virus (NZ2)) of the same compound?
Answer: significant activity

Question: And the “decomposition in aqueous solution” value [5]?
Answer: slow decomposition

Question: What about the “Toxicity MCC (microscop)” value (HEL cells) of the same compound?
Answer: >100 µg/mL

Question: What about the CC50 (in vitro) of the same compound?
Answer: 129 µg/mL (≈ 460 µM)
